According to PubChem BioAssay AID2060613 (Molecular Pharmacology Branch, DTP, NCI, 2025):
Several values for one entry are separate records, joined by “and”; a condition that tells them apart may be missing. Equal entries are not always repeated. One block for each molecule: values may come before it.

Test system: 233499-124-R-J3-PDC complex spheroid viability
Assay: Anticancer human tumor 233499-124-R-J3-PDC patient-derived colon adenocarcinoma cell line growth inhibition [CLK]
Settings: for viability, T/C: stronger effect = lower value
Excerpt: A high-throughput screen of multi-cell type tumor spheroids was designed to identify active combinations of […] and targeted small molecules. Complex spheroids include a stromal component modeled by human endothelial cells (HUVEC) and fibroblasts modeled by human mesenchymal stem cells (MSCs). The concentration ranges selected for each drug and investigational agent were based upon clinically achievable concentrations if the clinical Cmax of the agent was known.
Compounds. The drugs and investigational agents: cirtuvivint (SM08502; NSC835563), CC-671 (NSC850746), vemurafenib (NSC761431), tapotoclax (NSC804041), sotorasib (NSC818433), adagrasib (NSC831453), MRTX-1133 (NSC836407), BAY2416964 (NSC825713), copanlisib (NSC816437), inavolisib (NSC800729), abemaciclib (NSC768073), osimertinib (NSC779217), entinostat (NSC756642), eltanexor (KPT-8602, NSC794443), venetoclax (NSC766270), ceralasertib (NSC777638), bortezomib (NSC756655), olaparib (NSC753686), talazoparib (NSC767125), alisertib (NSC759677), peposertib (NSC802822), gemcitabine (NSC613327), 5-fluorouracil (NSC19893), SN-38 (NSC673596), oxaliplatin (NSC266046), paclitaxel (NSC125973), and doxorubicin (NSC123127), were obtained from the National Cancer Institute (NCI) Developmental Therapeutics Program Chemical Repository. The FDA-approved anticancer drug set is available from the Developmental Therapeutics Program at https://dtp.cancer.gov/organization/dscb/obtaining/available plates.htm. […] The stock solutions were prepared in dimethyl sulfoxide (DMSO, Sigma-Aldrich, St. Louis, MO, cat. D2650), except for the platinum complexes which were prepared in saline (Quality Biological, Gaithersburg, MD, cat. 114-055-101), at 800-fold the tested concentration and stored at -70 degrees C prior to their use. All drugs and investigational agents were tested over a range starting from a high concentration at or near the clinical Cmax and decreasing in half-log increments. If the clinical Cmax for an agent had not been determined, the highest concentration tested was 10 microM.
Cell Culture. All cells were maintained in an incubator at 37 degrees C and 5% CO2 with 95% humidity. The PDC lines were cultured according to standard operating procedures established by the NCI PDMR. Briefly, all PDCs were thawed and cultured in Matrigel-coated flasks prepared with a working solution of 1X Ham's F-12 nutrient mix, without supplementation (Invitrogen, Waltham, MA, cat. 11765054), 100 U/mL penicillin-streptomycin (Invitrogen, cat. 15140122), and 2.5% Matrigel (Corning Inc., Corning, NY, cat. 354248) for the first three passages. The 947758-054-R-J2-PDC line was cultured in 6B/Colon 1A media, which includes advanced DMEM/F-12 (Thermo Fisher Scientific, cat. 12634028), 10 mM HEPES (Thermo Fisher Scientific, cat. 15630080), 1X GlutaMAX supplement (Thermo Fisher Scientific, cat. 35050061), 0.1 mg/mL primocin (InvivoGen, cat. ant-pm-2), 10% defined fetal bovine serum, heat inactivated (HyClone Laboratories Inc., cat. SH30070.03HI), 1.25 mM N-Acetyl-L-cysteine (Sigma-Aldrich, cat. A9165), 10 mM nicotinamide (Sigma-Aldrich, cat. N0636), 1X B-27 supplement (Thermo Fisher Scientific, cat. 17504044), 1X N-2 supplement (Thermo Fisher Scientific, cat. 17502048), and 10 microM Y-27632 dihydrochloride (Tocris Bioscience, cat. 1254). The 876862-298-R-J1-PDC was cultured in 6E media, which includes all 6B/Colon 1A media components plus 50% L-WRN conditioned media (ATCC, cat. CRL-3276), 50 ng/mL recombinant human EGF recombinant protein (hEGF; Thermo Fisher Scientific, cat. PHG0311), 10 ng/mL recombinant human fibroblast growth factor 10 (hGFG-10; PeproTech, cat. 100-26), 1 ng/mL recombinant human fibroblast growth factor 2 (hFGF-2; PeproTech, cat. 100-18B), and 1 µM prostaglandin E2 (PGE2; Tocris, cat. 2296). The 227483-062-R1-J1-PDC line was cultured in Panc media, containing all 6E components except hFGF-2, with the addition of 500 nM SB-431542 (Selleckchem, cat. S1067) and 10 nM gastrin (Tocris, cat. 3006). […]

[1] = curve of first compound, second compound 0.0316 µM
[2] = curve of first compound, second compound 0.1 µM
[3] = curve of first compound, second compound 0.316 µM
[4] = curve of first compound, second compound 1 µM
[5] = curve of first compound, second compound 3.16 µM
[6] = curve of first compound, second compound 10 µM
[7] = second compound 0.0316 µM, first compound 0.0316 µM
[8] = second compound 0.0316 µM, first compound 0.1 µM
[9] = second compound 0.0316 µM, first compound 0.316 µM
[10] = second compound 0.0316 µM, first compound 1 µM
[11] = second compound 0.0316 µM, first compound 3.16 µM
[12] = second compound 0.0316 µM, first compound 10 µM
[13] = second compound 0.1 µM, first compound 0.0316 µM
[14] = second compound 0.1 µM, first compound 0.1 µM
[15] = second compound 0.1 µM, first compound 0.316 µM
[16] = second compound 0.1 µM, first compound 1 µM
[17] = second compound 0.1 µM, first compound 3.16 µM
[18] = second compound 0.1 µM, first compound 10 µM
[19] = second compound 0.316 µM, first compound 0.0316 µM
[20] = second compound 0.316 µM, first compound 0.1 µM
[21] = second compound 0.316 µM, first compound 0.316 µM
[22] = second compound 0.316 µM, first compound 1 µM
[23] = second compound 0.316 µM, first compound 3.16 µM
[24] = second compound 0.316 µM, first compound 10 µM
[25] = second compound 1 µM, first compound 0.0316 µM
[26] = second compound 1 µM, first compound 0.1 µM
[27] = second compound 1 µM, first compound 0.316 µM
[28] = second compound 1 µM, first compound 1 µM
[29] = second compound 1 µM, first compound 3.16 µM
[30] = second compound 1 µM, first compound 10 µM
[31] = second compound 3.16 µM, first compound 0.0316 µM
[32] = second compound 3.16 µM, first compound 0.1 µM
[33] = second compound 3.16 µM, first compound 0.316 µM
[34] = second compound 3.16 µM, first compound 1 µM
[35] = second compound 3.16 µM, first compound 3.16 µM
[36] = second compound 3.16 µM, first compound 10 µM
[37] = second compound 10 µM, first compound 0.0316 µM
[38] = second compound 10 µM, first compound 0.1 µM
[39] = second compound 10 µM, first compound 0.316 µM
[40] = second compound 10 µM, first compound 1 µM
[41] = second compound 10 µM, first compound 3.16 µM
[42] = second compound 10 µM, first compound 10 µM
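Note: spheroids exposed to the drug combinations for seven days.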
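Throughout, for viability, T/C: percent viability relative to DMSO vehicle control wells taken as 100%.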

Structure (SMILES): COc1cccc2c1C(=O)c1c(O)c3c(c(O)c1C2=O)CC(O)(C(=O)CO)CC3OC1CC(N)C(O)C(C)O1 (stereo not drawn)
viability, T/C (compound 0.0316 µM): 92.5% and 101%
viability, T/C (compound 0.1 µM): 99% and 94.5%
viability, T/C (compound 0.316 µM): 81.5% and 67.5%
viability, T/C (compound 1 µM): 72.2% and 48.1%
viability, T/C (compound 3.16 µM): 45.6% and 21.7%
viability, T/C (compound 10 µM): 17.3% and 17.5%
IC50 (curve of compound): 2610 nM and 781 nM

Structure (SMILES): CCc1c2c(nc3ccc(O)cc13)-c1cc3c(c(=O)n1C2)COC(=O)[C@]3(O)CC
viability, T/C (compound 0.00316 µM): 88.5% and 83.9%
viability, T/C (compound 0.01 µM): 62.1% and 59.6%
viability, T/C (compound 0.0316 µM): 87.1% and 45.6%
viability, T/C (compound 0.1 µM): 92.3% and 52.8%
viability, T/C (compound 0.316 µM): 80.8% and 49.8%
viability, T/C (compound 1 µM): 42% and 37.8%

Structure (SMILES): C#Cc1c(F)ccc2cc(O)cc(-c3ncc4c(N5CC6CCC(C5)N6)nc(OCC56CCCN5CC(F)C6)nc4c3F)c12 (stereo not drawn)
viability, T/C (compound 0.0316 µM): 86.1% and 87.7%
viability, T/C (compound 0.1 µM): 102% and 104%
viability, T/C (compound 0.316 µM): 95.6% and 105%
viability, T/C (compound 1 µM): 92% and 87.8%
viability, T/C (compound 3.16 µM): 89.5% and 79%
viability, T/C (compound 10 µM): 76.6% and 78.5%
IC50 (curve of compound): > 10000 nM

Structure (SMILES): Nc1ccn(C2OC(CO)C(O)C2(F)F)c(=O)n1 (stereo not drawn) + CNC(=O)c1ccc(Nc2nc(OC3CCCC3)c3c(-c4ccc5nc(C)oc5c4)c[nH]c3n2)c(OC)c1
IC50 [1]: 71.3 nM
IC50 [2]: 125 nM
IC50 [3]: 121 nM
IC50 [4]: 42.4 nM
IC50 [5]: 39.9 nM
IC50 [6]: 44.1 nM
viability, T/C [7]: 80.5%
viability, T/C [8]: 37.3%
viability, T/C [9]: 11.7%
viability, T/C [10]: 13.9%
viability, T/C [11]: 22.5%
viability, T/C [12]: 13.7%
viability, T/C [13]: 56.8%
viability, T/C [14]: 57.8%
viability, T/C [15]: 18.3%
viability, T/C [16]: 22%
viability, T/C [17]: 18.2%
viability, T/C [18]: 18.3%
viability, T/C [19]: 65.2%
viability, T/C [20]: 56.8%
viability, T/C [21]: 15.7%
viability, T/C [22]: 8.6%
viability, T/C [23]: 14.8%
viability, T/C [24]: 14.3%
viability, T/C [25]: 63%
viability, T/C [26]: 12%
viability, T/C [27]: 13.7%
viability, T/C [28]: 9.36%
viability, T/C [29]: 10.2%
viability, T/C [30]: 8.84%
viability, T/C [31]: 53.5%
viability, T/C [32]: 36%
viability, T/C [33]: 11.4%
viability, T/C [34]: 5.38%
viability, T/C [35]: 6.79%
viability, T/C [36]: 5.11%
viability, T/C [37]: 53.4%
viability, T/C [38]: 41.7%
viability, T/C [39]: 11.5%
viability, T/C [40]: 6.13%
viability, T/C [41]: 5.83%
viability, T/C [42]: 4.84%

Continued, in another order:

IC50 [1]: 1830 nM
IC50 [2]: 731 nM
IC50 [3]: 233 nM
IC50 [4]: 199 nM
IC50 [5]: 443 nM
IC50 [6]: 157 nM
Structure (SMILES): Nc1ccccc1NC(=O)c1ccc(CNC(=O)OCc2cccnc2)cc1 + CNC(=O)c1ccc(Nc2nc(OC3CCCC3)c3c(-c4ccc5nc(C)oc5c4)c[nH]c3n2)c(OC)c1
viability, T/C [7]: 96.7%
viability, T/C [8]: 86%
viability, T/C [9]: 91.8%
viability, T/C [10]: 79.7%
viability, T/C [11]: 23.1%
viability, T/C [12]: 0.94%
viability, T/C [13]: 64.9%
viability, T/C [14]: 67.4%
viability, T/C [15]: 63.6%
viability, T/C [16]: 44.8%
viability, T/C [17]: 9.08%
viability, T/C [18]: 0.5%
viability, T/C [19]: 77%
viability, T/C [20]: 66.7%
viability, T/C [21]: 43.6%
viability, T/C [22]: 20%
viability, T/C [23]: 4.82%
viability, T/C [24]: 0.23%
viability, T/C [25]: 74.6%
viability, T/C [26]: 70.1%
viability, T/C [27]: 35.7%
viability, T/C [28]: 15.2%
viability, T/C [29]: 2.15%
viability, T/C [30]: 0.09%
viability, T/C [31]: 71.1%
viability, T/C [32]: 65.6%
viability, T/C [33]: 67.2%
viability, T/C [34]: 8.74%
viability, T/C [35]: 1.22%
viability, T/C [36]: 0.1%
viability, T/C [37]: 70.8%
viability, T/C [38]: 50.4%
viability, T/C [39]: 44.5%
viability, T/C [40]: 20.6%
viability, T/C [41]: 1.09%
viability, T/C [42]: 0.15%

IC50 (curve of compound): 59.1 nM and 60.7 nM
Structure (SMILES): CC(=O)O[C@H]1C(=O)[C@@]2(C)[C@H]([C@H](OC(=O)c3ccccc3)[C@]3(O)C[C@H](OC(=O)[C@H](O)[C@@H](NC(=O)c4ccccc4)c4ccccc4)C(C)=C1C3(C)C)[C@]1(OC(C)=O)CO[C@@H]1C[C@@H]2O
viability, T/C (compound 0.0316 µM): 63.2% and 74.1%
viability, T/C (compound 0.1 µM): 38.9% and 31.5%
viability, T/C (compound 0.316 µM): 19.9% and 8.71%
viability, T/C (compound 1 µM): 17.4% and 11%
viability, T/C (compound 3.16 µM): 20.4% and 9.09%
viability, T/C (compound 10 µM): 24.4% and 16.4%

IC50 (curve of compound): > 10000 nM
Structure (SMILES): CC(Nc1ccc2c(c1)OCCn1cc(N3C(=O)OCC3C(F)F)nc1-2)C(N)=O (stereo not drawn)
viability, T/C (compound 0.0316 µM): 94%
viability, T/C (compound 0.1 µM): 83.7%
viability, T/C (compound 0.316 µM): 79.8%
viability, T/C (compound 1 µM): 74.8%
viability, T/C (compound 3.16 µM): 61.7%
viability, T/C (compound 10 µM): 51.9%
